Reference: patent US9670238B1 (priority 2015, dated 2017)
“Also recorded” adds a separate entry of the source. Like-named read-outs stand apart in the source and are kept apart here.

How the values were obtained:
[1] = target: T1, CDA (1-146aa), Human, His-tagged, Recombinant cytidine deaminase (Homo sapiens, UniProt P32320); format: in vitro ADME; settings: PBS with cytidine deaminase, 37° C., about 30 minutes to 1 hour
T1 construct: CDA (1-146aa), Human, His-tagged; His tag; purchased ATGen
Description: 1 mg each of the 5′-dibenzyl phosphate derivatives of 5-azacytidines (formula (1)) was dissolved in 1 mL of acetonitrile. 10 μL of the solution was diluted with 1 mL of PBS. 10 μL of PBS solution of cytidine deaminase was added and stirred at 37° C. for about 30 minutes to 1 hour. 1 mL of acetonitrile was added to the reaction solution and separated by centrifugation. The supernatant obtained was analyzed with HPLC.
Cytidine deaminase: CDA (1-146aa), Human, His-tagged, Recombinant cytidine deaminase (ATGen)
Column: CAPCELL PAK ADME (4.6 mm×150 mm, particle size:3 μm)
Elution: A=Purified water containing 10 mM ammonium formate • B=Acetonitrile • Gradient mode: A:B=99:1→5:95/30 minutes

[2] = Non-enzymatic hydrolysis reactivity in PBS solution at 37° C. (HPLC); format: physicochemical; settings: for Hydrolysis in PBS solution to the corresponding 5-azacytidines (in words): 37° C., up to 24 hours; for 5-Azacytidine or 2′-deoxy-5-azacytidine (%) After 4 hours / 5-Azacytidine or 2′-deoxy-5-azacytidine (%) After 8 hours / 5-Azacytidine or 2′-deoxy-5-azacytidine (%) After 24 hours: PBS pH7.4 to 7.5, 37° C.
Description: About 1 mg each of the obtained 5′-dibenzyl phosphate derivatives of 5-azacytidines (referring to formula (1)), such as O,O′-dibenzyl 5-azacytidylate (compound A) or O,O′-dibenzyl 2′-deoxy-5-azacytidylate (compound B) was dissolved in 1 mL of acetonitrile. 5 μL of the solution was added to 100 μL of PBS solution (pH7.4 to 7.5) and the solution was stirred at 37° C. The reactions were traced by HPLC analysis.
HPLC conditions were same as those in test example 1.

[3] = tested on: myeloma cells (RPMI-8226); assay: Anti-myeloma activity, inhibition of cell proliferation; format: cell-based; settings: RPMI-8226, 72 hours incubation, cell count
Description: To the solutions containing about 4000 myeloma cells (RPMI-8226), solutions of 5′-dibenzyl phosphate derivatives of 5-azacytidines at concentrations of 0.0033 μM, 0.01 μM, 0.033 μM, 0.1 μM, 0.33 μM, 1 μM, 3.3 μM, 10 μM, 33 μM, or 100 μM were added. After incubation in RPMI-1640 (containing 10% FBS and 1% Penn-strep) for 72 hours, cell count was determined and the values of IC50 were calculated as inhibitory effect against cell proliferation (referring to Journal of Clinical Pathology, 2006, 59, 947-951).

[4] = Partition coefficient (n-octanol/PBS); format: physicochemical
Excerpt: The separation systems using a silica gel column, separation yields, data obtained from instrumental analysis and partition coefficients of 5′-dibenzyl (or diphenethyl, diphenyl) phosphate derivatives of 5-azacytidines (compounds A to H) which were synthesized according to the methods A and B are shown as below.

T1 sequence (P32320 whole entry): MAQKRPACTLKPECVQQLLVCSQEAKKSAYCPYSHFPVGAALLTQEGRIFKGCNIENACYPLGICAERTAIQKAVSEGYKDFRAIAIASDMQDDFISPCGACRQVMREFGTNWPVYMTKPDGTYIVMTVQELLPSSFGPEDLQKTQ

Row | Compound | Change in HPLC pattern (peak of the starting material) [1] | Hydrolysis in PBS solution to the corresponding 5-azacytidines (in words) [2] | IC50 [3] | IC50 ([3]; Homo sapiens) | Change in HPLC pattern (peak of the starting material) ([1]; listed as 2′-deoxy-5-azacytidine) | Partition coefficient, Log P [4] | 5-Azacytidine or 2′-deoxy-5-azacytidine (%) After 4 hours [2] | 5-Azacytidine or 2′-deoxy-5-azacytidine (%) After 8 hours [2] | 5-Azacytidine or 2′-deoxy-5-azacytidine (%) After 24 hours [2]
1 | O,O′-diphenethyl 5-azacytidylate [compound F] | Almost no change in the peak of the starting | almost no change was confirmed even after 24 hours; also recorded: could not be observed |  |  |  |  |  |  | 
2 | O,O′-diphenyl 2′-deoxy-5-azacytidylate [compound H] | extremely stable |  |  |  |  |  |  |  | 
3 | O,O′-diphenyl 5-azacytidylate [compound G] | extremely stable | almost no change was confirmed even after 24 hours; also recorded: could not be observed | > 100000 nM |  |  |  |  |  | 
4 | Nc1ncn([C@H]2C[C@H](O)[C@@H](CO)O2)c(=O)n1 [2′-Deoxy-5-azacytidine, 2′-deoxy-5-azacytidine, reference compound] | The peak of the starting material disappeared |  |  | 30 nM | disappeared completely |  |  |  | 
5 | O,O′-dibenzyl 5-azacytidylate [compound A] | Almost no change in the peak of the starting | gradually hydrolyzed | 1710 nM |  |  | 0.83 | 18% | 35% | 67%
6 | O,O′-di(4-fluoro)benzyl 2′-deoxy-5-azacytidylate [compound D] | Almost no change in the peak of the starting |  | 780 nM |  |  |  |  |  | 
7 | O,O′-dibenzyl 2′-deoxy-5-azacytidylate [compound B] | Almost no change in the peak of the starting | gradually hydrolyzed |  |  |  |  | 8% | 8% | 45%
